Assay: Particle size of valsartan by laser light scattering (Malvern Mastersizer MS 2000, suspension in vegetable oil)
Assay type: physicochemical
Settings: for average particle size: Malvern Mastersizer MS 2000 software; for % of particles in the range of 0.02-50 μm: range 0.02-50 μm; for % of particles in the range of 0.02-100 μm: range 0.02-100 μm; for size that 50% of particles were larger than (D50): volume diameter
Excerpt: The term “particle size” as used herein refers to the volume diameter of valsartan particles, as determined by laser light scattering using a Malvern-Mastersizer Apparatus MS 2000. D50 means that 50% of particles (V/V) have a higher volume diameter than the indicated value. The term “valsartan particle” means a particle that contains valsartan or, preferably, a particle that essentially or completely consists of valsartan. The particles to be subjected to the particle size measurement are first suspended in vegetable oil (i.e. sunflower oil) and then subjected to a size determination in a Malvern Mastersizer MS 2000 instrument. Usually, 100-800 mg of substance are dispersed in 5-8 ml of vegetable oil. No solubilizers or surfactants are used. According to manufacturer's information, the Malvern Mastersizers allow for a measurement of particle size distributions in the range of 20 nm to 2000 μm, with a precision of better than 0.5%. Particle sizes are determined by measuring the angular distribution of laser light scattered by a homogeneous suspension of particles. The size distribution is determined from the light scattering data using the theory of light scattering developed by Gustav Mie. The following examples illustrate the invention and are not intended to restrict the scope of the invention in any way. In the following examples, the water content was determined as loss on drying on a Mettler Toledo HR73 halogen moisture analyzer. The particle size was determined in a Malvern Mastersizer MS 2000, using a suspension of valsartan in vegetable oil (sunflower oil of Oljarica Kranj).

size that 10% of particles were larger than | size that 10% of particles were smaller than | average particle size | Particle size distribution, Volume % in range 0.01-2 μm | % of particles in the range of 0.02-50 μm | % of particles in the range of 0.02-100 μm | Particle size distribution, Volume % in range 2-5 μm | Particle size distribution, Volume % in range 5-10 μm | Particle size distribution, Volume % in range 10-20 μm | Particle size distribution, Volume % in range 20-50 μm | Particle size distribution, Volume % in range 50-100 μm | Particle size distribution, Volume % in range 100-150 μm | Particle size distribution, Volume % in range 150-800 μm | size that 50% of particles were larger than (D50) | % of particles in the range of 0.02-56 μm (range 0.02-56 μm as printed) | SMILES
460.8 μm | 34.7 μm | 219 μm | 0.7 Volume % | 15.0% | 30.0% | 1.2 Volume % | 1.0 Volume % | 2.6 Volume % | 9.5 Volume % | 15.0 Volume % | 13.1 Volume % | 56.4 Volume % | 179.1 μm | – | CCCCC(=O)N(Cc1ccc(-c2ccccc2-c2nnn[nH]2)cc1)[C@H](C(=O)O)C(C)C [valsartan (B), N-(1-oxopentyl)-N-{4-[2-(1H-tetrazole-5-yl)phenyl]-benzyl}-L-valine]
304.3 μm | 10.3 μm | 123 μm | 0.9 Volume % | 38.1% | 58.1% | 3.3 Volume % | 5.5 Volume % | 9.3 Volume % | 19.1 Volume % | 20.0 Volume % | 12.4 Volume % | 29.4 Volume % | 76.6 μm | – | CCCCC(=O)N(Cc1ccc(-c2ccccc2-c2nnn[nH]2)cc1)[C@H](C(=O)O)C(C)C [valsartan (A), N-(1-oxopentyl)-N-{4-[2-(1H-tetrazole-5-yl)phenyl]-benzyl}-L-valine]
136.2 μm | 8.2 μm | 65 μm | 1.4 Volume % | – | 78.5% | 4.8 Volume % | 5.7 Volume % | 9.4 Volume % | 25.9 Volume % | 31.3 Volume % | 14.1 Volume % | 7.3 Volume % | 53.4 μm | 47.2% | CCCCC(=O)N(Cc1ccc(-c2ccccc2-c2nnn[nH]2)cc1)[C@H](C(=O)O)C(C)C [valsartan (C), N-(1-oxopentyl)-N-{4-[2-(1H-tetrazole-5-yl)phenyl]-benzyl}-L-valine]
